Calls of active or inactive are those of the source. The rule behind the calls is not given here.
Tests used:
Assay type in all cases: functional
Oxoeicosanoid receptor 1 [1] = target: T1, Oxoeicosanoid receptor 1 (Homo sapiens, UniProt Q8TDS5); assay: Agonist activity at OXE receptor in human neutrophils assessed as 5-oxo-ETE-induced Ca2+ mobilization incubated for 2 mins prior to 5-oxo-ETE addition measured after 1 min by spectrofluorimetric analysis
Oxoeicosanoid receptor 1 [2] = target: T1, Oxoeicosanoid receptor 1; assay: Antagonist activity at OXE receptor in human neutrophils assessed as 5-oxo-ETE-induced Ca2+ mobilization incubated for 2 mins prior to 5-oxo-ETE addition measured after 1 min by spectrofluorimetric analysis
Oxoeicosanoid receptor 1 [3] = target: T1, Oxoeicosanoid receptor 1; assay: Antagonist activity at OXE receptor in human neutrophils assessed as 5-oxo-ETE-induced Ca2+ mobilization incubated for 2 mins prior to 5-oxo-ETE addition measured at 1 uM after 1 min by spectrofluorimetric analysis
Oxoeicosanoid receptor 1 [4] = target: T1, Oxoeicosanoid receptor 1; assay: Antagonist activity at OXE receptor in human neutrophils assessed as LTB4-induced Ca2+ mobilization incubated for 2 mins prior to 5-oxo-ETE addition measured after 1 min by spectrofluorimetric analysis
Oxoeicosanoid receptor 1 [5] = target: T1, Oxoeicosanoid receptor 1; assay: Antagonist activity at OXE receptor in human neutrophils assessed as 5-oxo-ETE-induced Ca2+ mobilization incubated for 2 mins prior to 5-oxo-ETE addition measured at 30 uM after 1 min by spectrofluorimetric analysis
Oxoeicosanoid receptor 1 [6] = target: T1, Oxoeicosanoid receptor 1; assay: Antagonist activity at OXE receptor in human neutrophils assessed as induction of Ca2+ mobilization at 30 uM after 2 mins by spectrofluorimetric analysis

T1 sequence (Q8TDS5 whole entry): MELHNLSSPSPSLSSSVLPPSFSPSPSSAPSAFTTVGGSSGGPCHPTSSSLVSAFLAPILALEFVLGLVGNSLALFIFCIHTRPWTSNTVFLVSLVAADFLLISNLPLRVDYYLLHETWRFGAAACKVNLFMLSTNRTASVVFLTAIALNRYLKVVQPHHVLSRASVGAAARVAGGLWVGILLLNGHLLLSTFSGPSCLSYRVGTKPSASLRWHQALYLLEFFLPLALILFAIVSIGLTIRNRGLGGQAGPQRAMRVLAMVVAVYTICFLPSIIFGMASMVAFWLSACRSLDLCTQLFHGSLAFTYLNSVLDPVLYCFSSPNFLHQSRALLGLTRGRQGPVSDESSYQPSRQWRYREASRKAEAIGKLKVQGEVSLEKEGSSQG

| Activity (Oxoeicosanoid receptor 1 [1]) | IC50 (Oxoeicosanoid receptor 1 [2]) [µM] | SMILES | further results |
| --- | --- | --- | --- |
| inactive |  | O=C(O)CCCC(=O)/C=C/c1cccc2ccccc12 |  |
|  | 18 | CCCCCCc1ccc2ccn(C(=O)CCCC(=O)O)c2c1 |  |
|  | 17.7 | CCCCCCc1ccc2c(ccn2C(=O)CCCC(=O)O)c1 |  |
| inactive |  | O=C(O)CCCC(=O)/C=C/c1ccccc1 |  |
|  | 20.7 | CCCCCCc1cn(C(=O)CCCC(=O)O)c2ccccc12 |  |
|  | 1.55 | CCCCCCc1cc2ccccc2n1C(=O)CCCC(=O)O | Activity (Oxoeicosanoid receptor 1 [3]): Active; Activity (Oxoeicosanoid receptor 1 [4]): inactive |
| inactive | > 30 | O=C(O)CCCC(=O)n1ccc2ccccc21 | Activity (Oxoeicosanoid receptor 1 [5]): inactive; Activity (Oxoeicosanoid receptor 1 [6]): inactive |
| inactive |  | O=C(O)CCCc1cc2ccccc2o1 |  |
|  | 11.8 | CCCCCCc1cccc2ccn(C(=O)CCCC(=O)O)c12 |  |
